# Laboratory results as given in patent US5026701A, “Morpholine compounds, compositions and use” (Adir et Compagnie, priority 1989, dated 1991).
# Legend:
# [1] = Lethal dose test with yohimbine (potentiation of yohimbine 30 mg/kg i.p.), percentage mortality; format: in vivo, mice; details: mouse, in vivo; yohimbine lethality potentiation, mice; read-out: relationship between the mean effective p.o. and i.p. doses (oral bioavailability)
# Protocol: (§1) Male mice are administered yohimbine (α2 antagonist) by the intraperitoneal route at a dose of 30 mg/kg, a non-lethal dose which only causes the occurrence of hyperexcitability symptoms or convulsions. Any compound that facilitates noradrenergic neurotransmission potentiates the releasing effect of the yohimbine and brings about the death of the animals.
# (§2) A percentage mortality is thus measured for each group of animals treated 30 minutes beforehand i.p. or 60 minutes beforehand p.o. with the compound examined.
# mice [2] = assay: Cerebral protecting effects: acute global hypoxia (barometric depressurization to 160 mbar), cerebral survival time; format: in vivo; details: 30 minutes before hypoxia; for increase in the survival time: male mice
# Protocol: The cerebral survival time taken as the occurrence of the last respiratory gasp is measured in control animals and in animals that have received the compound under examination 30 minutes beforehand by the intraperitoneal route.
# [3] = test system: synaptosomal reuptake of noradrenaline (NAD); assay: Synaptosomal reuptake of tritiated noradrenaline in vitro; format: biochemical; details: 10^-6 M, synaptosomes, versus control preparation
# Protocol: This effect was examined in the […] by measuring the synaptosomal reuptake of noradrenaline (NAD). For this, a fraction of synaptosomes is placed in the presence of tritiated NAD with or without previous incubation with the compound examined.
# A measurement of the radioactivity in the synaptosomal pellet makes it possible to calculate the quantity of NAD reuptaken naturally by neurone endings. A compound inhibiting the reuptake reduces the radioactivity measured and a percentage inhibition is measured by comparison with a control preparation.
# mice [4] = assay: Cerebral protecting effects: acute global hypoxia (barometric depressurization to 160 mbar), cerebral survival time; format: in vivo; details: 60 minutes before hypoxia
# mice [5] = assay: Psycho-awakening effect: sodium barbital (270 mg/kg i.p.) induced narcosis duration; format: in vivo; details: 30 μmols/kg i.p.
# Protocol: Male mice are administered sodium barbital by the i.p. route at a dose of 270 mg/kg. The duration of the narcosis so induced is compared between control animals and animals treated beforehand by the i.p. route with the compounds examined.
# mice [6] = assay: Hypothermia with apomorphine (16 mg/kg i.p.); format: in vivo; details: 30 minutes before apomorphine 16 mg/kg i.p.
# Protocol: The administration of a very strong dose of apomorphine (16 mg/kg i.p.) causes hypothermia of approximately 4° C. by the stimulation of dopaminergic heteroreceptors situated on the noradrenergic neurones. The so-created hypothermia is thus due to the failure of noradrenergic neurotransmission. The facilitating agents administered 30 minutes beforehand counteract this hypothermia.
# mice [7] = assay: Lethal dose test with yohimbine (potentiation of yohimbine 30 mg/kg i.p.), percentage mortality; format: in vivo; details: 9 μmols/kg i.p., 30 minutes before yohimbine 30 mg/kg i.p.
# Protocol: as §1, §2
# mice [8] = assay: Hexobarbital (75 mg/kg i.p.) induced narcosis duration; format: in vivo
# Protocol: This antagonism of barbital-induced narcosis reflects a psycho-awakening effect since no antagonism occurs when narcosis is induced with hexobarbital (75 mg/kg i.p.) (product of Example 2β:+20%; product of Example 1:+26%).
Compound,ratio of mean effective p.o. to i.p. dose [1],increase in the survival time (mice [2]; 3 μmols/kg i.p.),increase in the survival time (mice [2]; 9 μmols/kg i.p.),increase in the survival time (mice [2]; 30 μmols/kg i.p.),increase in the survival time (mice [2]; 90 μmols/kg i.p.),inhibition of the reuptake of NAD [3] [%],change in duration of narcosis with barbital (mice [5]) [%],inhibiting effect vis-a-vis hypothermia (mice [6]; 3 μmols/kg),inhibiting effect vis-a-vis hypothermia (mice [6]; 9 μmols/kg),also measured
"Fc1ccc(OC[C@H]2CNCCO2)c2c1CCCN2 [Example 2α, R-5-fluoro-8-(2-morpholinylmethoxy)-1,2,3,4-tetrahydroquinoline monomethanesulphonate]",1.77,,,,,,,,,
"Fc1cc2c(c(OC[C@@H]3CNCCO3)c1)NCCC2 [Example 1β, S-6-fluoro-8-(2-morpholinylmethoxy)-1,2,3,4-tetrahydroquinoline monomethanesulphonate]",,+21%,+42%,+62%,+108%,-55.4,,,,
"CS(=O)(=O)O.Fc1cc2c(c(OC[C@H]3CNCCO3)c1)NCCC2 [Example 1α, R-6-fluoro-8-(2-morpholinylmethoxy)-1,2,3,4-tetrahydroquinoline monomethanesulphonate]",3.16,,+37%,+55%,+114%,,,,,increase in the survival time (mice [4]; 9 μmols/kg orally): 37%
"c1cc2c(c(OCC3CNCCO3)c1)NCCC2 (racemic) [reference product, R,S-8-[(2-morpholinyl)methoxy]-1,2,3,4-tetrahydroquinoline, reference compound]",4.25,+5%,+17%,+42%,+87%,33.6,-20,no effect,+0.5%,"increase in the survival time (mice [4]; 40 μmols/kg orally): 31%; mortality (mice [7]): +20%; minimal effective dose (mice [2]; Mus musculus, ip, read-out: dose from which hypoxia is significantly counteracted (protecting effect obtained)): 9 µmol/kg"
"Fc1ccc(OCC2CNCCO2)c2c1CCCN2 (racemic) [Example 2, R,S-5-fluoro-8-(2-morpholinylmethoxy)-1,2,3,4-tetrahydroquinoline]",,,,,,,,,-29%,
"Fc1ccc(OC[C@@H]2CNCCO2)c2c1CCCN2 [Example 2β, S-5-fluoro-8-(2-morpholinylmethoxy)-1,2,3,4-tetrahydroquinoline monomethanesulphonate]",,21%,,,,-58.9,40,-16%,-21%,change in duration of narcosis induced with hexobarbital (mice [8]): +20%
"Fc1cc2c(c(OCC3CNCCO3)c1)NCCC2 (racemic) [Example 1, R,S-6-fluoro-8-(2-morpholinylmethoxy)-1,2,3,4-tetrahydroquinoline]",,,,,,,-36,-27%,-46%,change in duration of narcosis induced with hexobarbital (mice [8]): +26%
